According to ChEMBL document CHEMBL5729797, “Compounds having tetrahydroindolizine-1-carboxamide as BCL-2 inhibitors” (2023):

How the values were obtained:
Bcl-2-like protein 1 = Bcl-2-like protein 1 (Homo sapiens, UniProt Q07817); assay: (§1) BCL-XL TR-FRET Assay: The following assay concentrations and times were used: 10.5 ng BCL-XL, 5 μl of 1:100 anti-His Tb-labeled donor, 5 μl of 1:100 Dye-labeled acceptor, 5 μl of 1:80 BCL-XL Peptide Ligand, and 2 μl of test compound, with 60 min incubation time. The results of the assay were read using a Clariostar (BMG Labtech) plate reader with the following parameters: TR FRET, 340ex/620 and 665em; 60 μsec Delay; and 500 μsec integration.
Bcl-2-like protein 1, sequence (Q07817 whole entry): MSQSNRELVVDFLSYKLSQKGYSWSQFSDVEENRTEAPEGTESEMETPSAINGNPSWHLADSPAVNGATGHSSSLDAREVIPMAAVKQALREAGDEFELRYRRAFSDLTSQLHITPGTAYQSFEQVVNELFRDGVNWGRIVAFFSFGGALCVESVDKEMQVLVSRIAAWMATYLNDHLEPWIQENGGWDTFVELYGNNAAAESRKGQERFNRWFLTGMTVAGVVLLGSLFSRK

[1] = biological target: Apoptosis regulator Bcl-2 (Homo sapiens, UniProt P10415); assay: as §1, with “BCL-2 TR-FRET” for “BCL-XL TR-FRET”, “used: 3” for “used: 10.5”, “ng BCL-2,” for “ng BCL-XL,”, “of 1:40 BCL-2” for “of 1:80 BCL-XL”, “2 ul” for “2 μl”
Apoptosis regulator Bcl-2, sequence (P10415 whole entry): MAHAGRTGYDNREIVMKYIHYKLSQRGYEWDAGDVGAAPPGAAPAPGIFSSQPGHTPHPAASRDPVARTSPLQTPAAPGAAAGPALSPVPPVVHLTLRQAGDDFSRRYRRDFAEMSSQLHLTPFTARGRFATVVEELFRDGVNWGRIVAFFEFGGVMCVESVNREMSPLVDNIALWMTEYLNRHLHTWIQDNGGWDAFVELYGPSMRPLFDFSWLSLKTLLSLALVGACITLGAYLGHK

Question: Which results are given for `O=C(c1cc(-c2cc3c(cc2C(=O)N2Cc4ccccc4C[C@H]2CN2CCOCC2)OCO3)n2c1CCCC2)N(Cc1ccccc1F)c1ccc(O)cc1`?
Answer: IC50 (Bcl-2-like protein 1): < 2 µM; IC50 [1]: < 0.005 µM

Question: With `O=C(c1cc(-c2cc3c(cc2C(=O)N2Cc4ccccc4C[C@H]2CN2CCOCC2)OCO3)n2c1CCCC2)N(Cc1ccc(F)cc1)c1ccc(O)cc1` as the compound, how does the IC50 (Bcl-2-like protein 1) read?
Answer: > 4 µM
